# According to patent US20050090498A1, “3-Quinolin-2(1h)-ylideneindolin-2-one derivative” (priority 2001, published 2005):
# Columns and labels:
# [1] = system: VEGF-dependent in vitro angiogenesis (endotherial vessel forming amount); assay: In vitro angiogenesis inhibition test (KURABO angiogenesis kit, CD31 staining); format: cell-based; conditions: Homo sapiens, 312 h; 10 ng/ml VEGF, 13 days culture, anti-VEGF antibody as 0% control
# Procedure: Test method: An angiogenesis assay kit (mfd. by KURABO was used. A medium prepared by adding 10 ng/ml of VGEF (R & D Systems) to the special medium attached to the kit used as the culture medium. Each test drug was prepared as a 10 mM DMSO solution and added to a final concentration of from 0.003 to 1 μM by diluting with the special medium. Amount of angiogenesis under a condition of not adding the test drug was used as the positive control, and a condition under which 25 μg/ml of an anti-VEGF antibody (Sigma) was added was used as the negative control. On the 4th, 7th and 10th days after commencement of the culturing, the test drug was prepared as described in the above and exchanged with the medium of each well. On the 13th day, fixation of the cell layer was carried out in accordance with the method attached to the kit. That is, fixation of cell layer was carried out by adding ice-cooled 70% ethanol after washing with a physiological phosphate buffer and then allowing to stand at room temperature for 30 minutes. […]
# A endotherial vessel staining kit CD31 for staining (mfd. by KURABO) was used for the staining of the thus formed hollow organ. […] By importing the file preserved in the imaging software, the number of pixel obtained by threshold and measure commands was recorded. […]
# [2] = system: Human umbilical vein endothelial cells (HUVEC), VEGF-stimulated; assay: Test on the inhibition of VEGF-stimulated HUVEC growth ([3H]thymidine incorporation); format: cell-based; conditions: human recombinant VEGF 10 ng/ml
# [3] = system: human colon tumor COLO 205; assay: In vivo anti-tumor test using human colon tumor bearing nude mice; parameters: species or system female Balb/c nude mouse; conditions: COLO 205 bearing nude mice, oral once a day for 14 days, 10 or 30 mg/kg/day
# Procedure: Test method: A total of 4×10^6 cells of a human colon tumor COLO 205 were administered under the dorsal side skin of each female Balb/c nude mouse. When the tumor volume reached 50 to 100 mm^3, each of the test compounds was orally administered once a day for 14 days. In addition, 0.5% methyl cellulose aqueous solution was orally administered to the control group. Calipers were used for the measurement of tumor diameter, and it was measured on the next day of the final administration. In this case, the tumor volume was calculated using the following calculation formula. Tumor volume=(width^2×length)/2
# [4] = system: Human umbilical vein endothelial cells (HUVEC), VEGF-stimulated; assay: Test on the inhibition of VEGF-stimulated HUVEC growth ([3H]thymidine incorporation); format: cell-based; conditions: human recombinant VEGF 10 ng/ml; remark: listed apart in the source
# Procedure: Test method: (Cell culture) Human umbilical vein endothelial cells (HUVEC) were cultured using EGM-2 complete medium (Clonetics) which had been supplemented with additives (2% FBS, 0.4% FGF (fibroblast growth factor), 0.1% VEGF, 0.1% IGF-I (insulin like growth factor-I), 0.1% EGF (epidermal growth factor), 0.1% ascorbic acid, 0.1% GA-1000, 0.1% heparin and 0.04% hydrocortisone).
# (Evaluation of compounds) HUVEC (10,000 cells/well) were inoculated into EGM-2 complete medium in a gelatin-coated 96 well plate (mfd. by IWAKI) and cultured overnight. After washing with a physiological phosphate buffer, the medium was exchanged with a low serum medium (Medium 199/0.1% FBS) and the culturing was continued for 24 hours. Each of the compounds to be evaluated was prepared as a 10 mM DMSO solution and diluted with the low serum medium. This was added to each well to a final concentration of from 0.001 to 10 μM. After 2 hours of the compound treatment, human recombinant VEGF (R & D Systems) was added to a final concentration of 10 ng/ml. After 18 hours, [^3H]thymidine (Amersham Pharmacia) was added in 5 μCi/well portions. After 4 hours, the reaction was terminated by adding 0.2% SDS in 50 μl/well portions, and the product was recovered on GF/C Unifilter (Packard). After adding 25 μl of Microscinti 20 (Packard), the radioactivity incorporated into the DNA trapped on the filter was measured using TopCount (Packard). The IC50 of the inhibitory activity of each compound was calculated as the 50% inhibition concentration (IC50 value) of each compound to be tested, by defining the incorporated amount of [^3H]thymidine at the time of VEGF addition as 100%, and its incorporated amount at the time of no addition of VEGF as 0%.
IC50 [1],SMILES,IC50 [2],tumor growth inhibition (tumor volume) versus control [3],IC50 [4]
69 nM,"O=C1Nc2ccccc2C1=C1C=Cc2ccccc2N1 [Compound A, 3-quinolin-2(1H)-ylideneindolin-2-one]",140 nM,,
,"O=C1Nc2ccccc2C1=C1C=Cc2cc(OCCN3CCOCC3)ccc2N1 [Example 4, 3-[6-(2-morpholin-4-ylethoxy)quinolin-2(1H)-ylidene]indolin-2-one]",190 nM,inhibit the tumor growth with a significance for the control,
,"O=C(CN1CCOCC1)Nc1ccc2c(c1)C=CC(=C1C(=O)Nc3ccccc31)N2 [Example 9, 2-morpholin-4-yl-N-[2-(2-oxoindolin-3-ylidene)-1,2-dihydroquinolin-6-yl]acetamide]",200 nM,,
,"Nc1ccc2c(c1)C=CC(=C1C(=O)Nc3ccccc31)N2 [Example 10, 3-[6-aminoquinolin-2(1H)-ylidene]indolin-2-one]",990 nM,,
,"O=C1Nc2ccccc2C1=C1C=Cc2cc(CO)ccc2N1 [Example 14, 3-(6-hydroxymethylquinolin-2(1H)-ylidene)indolin-2-one]",300 nM,,
,"CN1CCC(COc2ccc3c(c2)C=CC(=C2C(=O)Nc4ccccc42)N3)CC1 [Example 15, 3-{6-[(1-methylpiperidin-4-yl)methoxy]quinolin-2(1H)-ylidene}indolin-2-one]",320 nM,,
,"O=C(Nc1cccnc1)Nc1ccc2c(c1)C=CC(=C1C(=O)Nc3ccccc31)N2 [Example 16, 1-[2-(2-oxoindolin-3-ylidene)-1,2-dihydroquinolin-6-yl]-3-(pyridin-3-yl)urea]",110 nM,,
,"CC(=O)c1ccc2c(c1)NC(=O)C2=C1C=Cc2ccccc2N1 [Example 21, 6-acetyl-3-quinolin-2(1H)-ylideneindolin-2-one]",220 nM,,
,"O=C1Nc2cc(C(=O)O)ccc2C1=C1C=Cc2ccccc2N1 [Example 25, 2-oxo-3-quinolin-2(1H)-ylideneindoline-6-carboxylic acid]",380 nM,,
,CN1CCN(CCOc2ccc3c(c2)C=CC(=C2C(=O)Nc4ccccc42)N3)CC1 [Example 41],,inhibit the tumor growth with a significance for the control,120 nM
,CCN(CC)CCOc1ccc2c(c1)C=CC(=C1C(=O)Nc3ccccc31)N2.O=C(O)CCC(=O)O [Example 44],,inhibit the tumor growth with a significance for the control,280 nM
,O=C1Nc2ccccc2C1=C1C=Cc2cc(CN3CCOCC3)ccc2N1 [Example 54],,inhibit the tumor growth with a significance for the control,29 nM
,CCN(CC)CCCc1ccc2c(c1)C=CC(=C1C(=O)Nc3ccccc31)N2 [Example 99],,inhibit the tumor growth with a significance for the control,130 nM
,O=C1Nc2ccccc2C1=C1C=Cc2cc(CNCC3CCCO3)ccc2N1 (stereo not drawn) [Example 111],,inhibit the tumor growth with a significance for the control,300 nM
,Cl.O=C1Nc2ccccc2C1=C1C=Cc2cc(CNCC3CCOCC3)ccc2N1 [Example 113],,inhibit the tumor growth with a significance for the control,
,O=C1Nc2ccccc2C1=C1C=Cc2cc(CNC3CCOCC3)ccc2N1 [Example 115],,inhibit the tumor growth with a significance for the control,
,"CN1CCN(Cc2ccc3c(c2)C=CC(=C2C(=O)Nc4ccccc42)N3)CC1 [Example 132, 3-{6-[(4-methylpiperazin-1-yl)methyl]quinolin-2(1H)-ylidene}indolin-2-one]",,inhibit the tumor growth with a significance for the control,
,"CCN1CCN(Cc2ccc3c(c2)C=CC(=C2C(=O)Nc4ccccc42)N3)CC1 [Example 134, 3-{6-[(4-ethylpiperazin-1-yl)methyl]quinolin-2(1H)-ylidene}indolin-2-one]",,inhibit the tumor growth with a significance for the control,
,"CN1CCN(C(=O)c2ccc3c(c2)C=CC(=C2C(=O)Nc4ccccc42)N3)CC1 [Example 148, 3-[6-(4-methylpiperazine-1-carbonyl)quinolin-2(1H)-ylidene]indolin-2-one]",74 nM,inhibit the tumor growth with a significance for the control,
,O=C1Nc2cc(F)ccc2C1=C1C=Cc2cc(OCCN3CCOCC3)ccc2N1 [Example 310],,inhibit the tumor growth with a significance for the control,310 nM
,O=C1Nc2ccc(F)cc2C1=C1C=Cc2cc(OCCN3CCOCC3)ccc2N1 [Example 311],,inhibit the tumor growth with a significance for the control,240 nM
,CN(C)[C@H]1CCCC1Nc1ncc2c(n1)/C(=C1\C=Cc3ccccc3N1)C(=O)N2 (stereo partly drawn) [Example 354],140 nM,,
,O=C1Nc2cnc(Cl)nc2/C1=C1\C=Cc2ccccc2N1 [Example 361],24 nM,,
